Molecules are shown by their SMILES.

One data set deals with HDAC1 (Homo sapiens, UniProt Q13547). Kind of data set: in vitro HDAC inhibition assay (fluorescence), HDAC1. It counts as biochemical. As to the method:
(§1) Briefly, all of the compounds are dissolved in DMSO. A series of dilutions of the compounds were prepared with 10% DMSO in HDAC assay buffer and 5 μl of the dilution was added to a 50 μl reaction so that the final concentration of DMSO is 1% in all of reactions. The compounds were pre-incubated in duplicate at RT for 1 hour in a mixture containing HDAC assay buffer, 5 μg BSA, HDAC enzyme (see Table 7) and a the particular HDACi. After 1 hour, the enzymatic reactions were initiated by the addition of HDAC substrate (BPS Bioscience) to a final concentration of 10 μM or 2 μM. The enzymatic reaction proceeded for 30 minutes at 37° C.
(§2) HDAC activity assays were performed in duplicates at each concentration. The fluorescent intensity data were analyzed using the computer software, Graphpad Prism. In the absence of the compound, the fluorescent intensity (Ft) in each data set was defined as 100% activity. In the absence of HDAC, the fluorescent intensity (Fb) in each data set was defined as 0% activity. The percent activity in the presence of each compound was calculated according to the following equation: % activity=(F−Fb)/(Ft−Fb), where F=the fluorescent intensity in the presence of the compound. […]

Another data set concerns the target HDAC2 (Homo sapiens, UniProt Q92769). Put plainly: biochemical. Here is the method: as §1
(§3) HDAC activity assays were performed in duplicates at each concentration. The fluorescent intensity data were analyzed using the computer software, Graphpad Prism. In the absence of the compound, the fluorescent intensity (Ft) in each data set was defined as 100% activity. In the absence of HDAC, the fluorescent intensity (Fb) in each data set was defined as 0% activity. The percent activity in the presence of each compound was calculated according to the following equation: % activity=(F−Fb)/(Ft−Fb), where F=the fluorescent intensity in the presence of the compound.
(§4) The values of % activity versus a series of compound concentrations were then plotted using non-linear regression analysis of Sigmoidal dose-response curve generated with the equation Y=B+(T−B)/1+10^((Log C50−X)×Hill Slope), where Y=percent activity, B=minimum percent activity, T=maximum percent activity, X=logarithm of compound and Hill Slope=slope factor or Hill coefficient. The IC50 value was determined by the concentration causing a half-maximal percent activity.

The next data set deals with HDAC3/NCOR2 (Homo sapiens, UniProt O15379). Kind of data set: biochemical. Here is the method: as §1, §3, §4
Another data set deals with T1, HDAC6 (Homo sapiens, UniProt Q9UBN7).
T1 sequence (Q9UBN7 1-1215): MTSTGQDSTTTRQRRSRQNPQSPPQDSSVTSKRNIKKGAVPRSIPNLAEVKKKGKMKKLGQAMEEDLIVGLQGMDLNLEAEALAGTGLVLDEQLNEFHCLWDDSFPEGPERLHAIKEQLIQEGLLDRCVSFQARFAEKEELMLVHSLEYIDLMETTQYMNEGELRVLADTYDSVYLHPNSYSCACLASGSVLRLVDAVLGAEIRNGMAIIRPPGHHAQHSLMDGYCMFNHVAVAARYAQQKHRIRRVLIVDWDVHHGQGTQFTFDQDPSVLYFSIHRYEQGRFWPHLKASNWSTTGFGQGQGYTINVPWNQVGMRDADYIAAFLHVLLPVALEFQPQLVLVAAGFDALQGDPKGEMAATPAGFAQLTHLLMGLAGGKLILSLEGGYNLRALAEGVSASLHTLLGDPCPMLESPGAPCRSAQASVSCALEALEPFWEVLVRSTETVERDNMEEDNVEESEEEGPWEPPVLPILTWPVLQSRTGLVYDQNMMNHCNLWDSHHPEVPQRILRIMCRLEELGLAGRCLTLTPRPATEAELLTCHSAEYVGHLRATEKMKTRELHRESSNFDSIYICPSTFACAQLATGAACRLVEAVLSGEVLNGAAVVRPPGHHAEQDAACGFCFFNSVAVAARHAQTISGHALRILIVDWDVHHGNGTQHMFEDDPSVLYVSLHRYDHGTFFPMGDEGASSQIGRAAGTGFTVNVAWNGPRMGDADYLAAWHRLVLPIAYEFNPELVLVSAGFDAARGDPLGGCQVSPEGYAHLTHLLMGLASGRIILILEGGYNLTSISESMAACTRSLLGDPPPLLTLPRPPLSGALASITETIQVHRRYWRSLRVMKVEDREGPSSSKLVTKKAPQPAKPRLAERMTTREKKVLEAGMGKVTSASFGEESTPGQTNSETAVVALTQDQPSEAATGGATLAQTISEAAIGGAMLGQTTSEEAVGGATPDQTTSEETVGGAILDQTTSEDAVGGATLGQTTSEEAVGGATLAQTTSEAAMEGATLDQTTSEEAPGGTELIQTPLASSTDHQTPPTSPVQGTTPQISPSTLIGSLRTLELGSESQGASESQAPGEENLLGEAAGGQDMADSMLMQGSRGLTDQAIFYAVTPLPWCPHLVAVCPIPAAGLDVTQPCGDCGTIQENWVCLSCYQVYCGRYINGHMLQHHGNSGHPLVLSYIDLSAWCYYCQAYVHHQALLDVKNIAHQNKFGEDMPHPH
Put plainly: biochemical. Here is the method:
as §1, §3, §4

In the next data set the target is T2, HDAC8 (Homo sapiens, UniProt Q9BY41).
T2 sequence (Q9BY41 1-377): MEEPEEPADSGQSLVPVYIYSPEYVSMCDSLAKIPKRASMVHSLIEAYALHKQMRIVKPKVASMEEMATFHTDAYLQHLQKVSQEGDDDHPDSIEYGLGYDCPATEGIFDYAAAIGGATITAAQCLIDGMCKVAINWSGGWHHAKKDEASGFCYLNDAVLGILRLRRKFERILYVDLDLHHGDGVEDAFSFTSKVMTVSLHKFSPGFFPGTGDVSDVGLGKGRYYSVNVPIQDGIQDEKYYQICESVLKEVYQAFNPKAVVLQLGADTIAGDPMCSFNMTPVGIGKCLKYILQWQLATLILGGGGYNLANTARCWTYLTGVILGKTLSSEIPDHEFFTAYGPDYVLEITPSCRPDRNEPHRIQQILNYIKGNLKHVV
Kind of data set: biochemical. As to the method: as §1, §3, §4

A further data set has as its target T3, HDAC11 (Homo sapiens, UniProt Q96DB2).
T3 sequence (Q96DB2 1-347): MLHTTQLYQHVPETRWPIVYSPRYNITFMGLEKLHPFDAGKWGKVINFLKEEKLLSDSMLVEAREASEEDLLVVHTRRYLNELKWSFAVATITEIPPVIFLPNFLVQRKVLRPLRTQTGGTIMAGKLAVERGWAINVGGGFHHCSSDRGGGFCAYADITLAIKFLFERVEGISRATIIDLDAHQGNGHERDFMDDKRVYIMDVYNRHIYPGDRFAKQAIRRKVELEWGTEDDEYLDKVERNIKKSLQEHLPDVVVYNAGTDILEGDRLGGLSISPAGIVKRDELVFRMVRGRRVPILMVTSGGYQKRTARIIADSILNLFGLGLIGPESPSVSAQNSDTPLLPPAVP
Put plainly: in vitro HDAC inhibition assay (fluorescence), HDAC11. It counts as biochemical. As to conditions: HDAC11. Here is the method:
as §1, §2

Data set [1] has as its system P3HR1 Burkitt's lymphoma cells. Put plainly: Cell death (7AAD staining) of EBV infected cell line, Nstat 3 days then ganciclovir 3 days. It counts as cell-based. Conditions: FIG. 4. Here is the method:
All test conditions were run in triplicate. Cell death was measured by 7AAD staining.

HDAC3/NCOR2, sequence (O15379 whole entry): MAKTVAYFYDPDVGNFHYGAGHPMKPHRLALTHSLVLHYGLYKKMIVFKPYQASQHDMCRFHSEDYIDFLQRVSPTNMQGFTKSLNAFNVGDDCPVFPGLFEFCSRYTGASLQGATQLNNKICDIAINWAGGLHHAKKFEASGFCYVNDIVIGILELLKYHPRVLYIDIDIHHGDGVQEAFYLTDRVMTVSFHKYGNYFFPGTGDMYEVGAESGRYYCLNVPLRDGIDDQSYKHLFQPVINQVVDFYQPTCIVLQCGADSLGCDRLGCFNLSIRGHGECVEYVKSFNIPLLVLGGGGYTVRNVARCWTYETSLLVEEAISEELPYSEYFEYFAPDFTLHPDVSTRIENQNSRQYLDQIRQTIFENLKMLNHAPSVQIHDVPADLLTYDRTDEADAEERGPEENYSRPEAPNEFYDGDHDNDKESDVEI
HDAC3/NCOR2, sequence (Q9Y618 395-489 partner limits assumed): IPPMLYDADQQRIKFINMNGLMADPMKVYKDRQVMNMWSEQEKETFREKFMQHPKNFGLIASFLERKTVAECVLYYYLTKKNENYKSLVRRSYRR
HDAC1, sequence (Q13547 whole entry): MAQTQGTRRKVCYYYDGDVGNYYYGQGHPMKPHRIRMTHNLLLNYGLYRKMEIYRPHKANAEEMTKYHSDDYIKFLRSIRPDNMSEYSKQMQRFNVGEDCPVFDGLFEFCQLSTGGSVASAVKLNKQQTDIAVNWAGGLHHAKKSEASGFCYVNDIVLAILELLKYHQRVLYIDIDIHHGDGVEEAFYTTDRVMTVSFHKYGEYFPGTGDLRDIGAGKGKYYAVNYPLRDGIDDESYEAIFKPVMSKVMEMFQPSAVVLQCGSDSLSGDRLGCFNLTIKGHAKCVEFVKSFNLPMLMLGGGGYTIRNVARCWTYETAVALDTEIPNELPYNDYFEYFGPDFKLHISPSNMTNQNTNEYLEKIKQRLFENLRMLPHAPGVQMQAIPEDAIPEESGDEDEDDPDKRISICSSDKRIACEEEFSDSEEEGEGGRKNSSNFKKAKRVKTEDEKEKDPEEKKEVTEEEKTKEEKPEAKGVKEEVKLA
HDAC2, sequence (Q92769 whole entry): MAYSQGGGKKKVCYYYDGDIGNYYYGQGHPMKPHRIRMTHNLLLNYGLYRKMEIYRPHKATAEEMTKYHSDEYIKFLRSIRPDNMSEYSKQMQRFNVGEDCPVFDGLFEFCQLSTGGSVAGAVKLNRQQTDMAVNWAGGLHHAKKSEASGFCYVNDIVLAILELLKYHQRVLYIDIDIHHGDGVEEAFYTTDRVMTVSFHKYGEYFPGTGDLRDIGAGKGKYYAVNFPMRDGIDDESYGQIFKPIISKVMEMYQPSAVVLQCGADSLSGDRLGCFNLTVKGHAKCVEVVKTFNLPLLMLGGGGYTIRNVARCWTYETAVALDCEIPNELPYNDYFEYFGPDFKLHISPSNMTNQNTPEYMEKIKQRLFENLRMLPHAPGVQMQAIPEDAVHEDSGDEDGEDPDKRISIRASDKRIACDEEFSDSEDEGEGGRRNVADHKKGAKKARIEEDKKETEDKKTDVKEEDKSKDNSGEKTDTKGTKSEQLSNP

Regarding `O=C(NO)c1cnc(N2CC3C(C2)C3NCc2ccc3cc(F)ccc3n2)nc1` (centres unmarked) [Nstat, 2-(6-{[(6-Fluoroquinolin-2-yl)methyl]amino}-3-azabicyclo[3.1.0]hex-3-yl)-N-hydroxypyrimidine-5-carboxamide], the IC50 turned out to be 3.6 nM on HDAC1; 12 nM at HDAC2; 12 nM on HDAC3/NCOR2; 450 nM against HDAC6; 860 nM against HDAC8; 2800 nM against HDAC11. For the same compound, in data set [1] (Nstat 3 days, wash, ganciclovir 3 days), the “increase of cytotoxic activity when combined with Ganciclovir” value is reported as around 40%. In addition, the “increased cytotoxicity with ganciclovir after Nstat removal” value in data set [1] (after 3 days of washout) is “seen even after Nstat removal”.

The values above are taken from US20240058347A1, “DOSAGES FOR HDAC TREATMENT WITH REDUCED SIDE EFFECTS” (VIRACTA THERAPEUTICS, INC., priority 2019, published 2024).
